Legend:
[1] = molecular target: T1, AII receptors (cell surface membrane fraction, guinea pig adrenal gland) (Cavia porcellus, UniProt Q9WV26); assay: Test A: displacement of radiolabelled AII binding to guinea pig adrenal membrane fraction; settings: read-out: IC50 (concentration for 50% displacement of radiolabelled AII binding)
T1 construct: from tissue; host or cells: guinea pig adrenal gland, cell surface membrane fraction
T1 sequence (Q9WV26 1-359): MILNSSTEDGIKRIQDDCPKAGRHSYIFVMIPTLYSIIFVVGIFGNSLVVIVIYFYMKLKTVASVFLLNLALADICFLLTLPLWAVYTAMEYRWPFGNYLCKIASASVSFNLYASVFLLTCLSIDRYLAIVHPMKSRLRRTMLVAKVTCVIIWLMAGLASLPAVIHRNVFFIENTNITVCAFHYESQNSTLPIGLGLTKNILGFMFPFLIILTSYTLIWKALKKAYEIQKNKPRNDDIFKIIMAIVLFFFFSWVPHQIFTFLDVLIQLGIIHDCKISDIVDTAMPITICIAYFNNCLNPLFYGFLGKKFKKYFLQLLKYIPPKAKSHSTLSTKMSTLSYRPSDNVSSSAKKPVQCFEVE
Protocol: Test A: This in vitro procedure involves the incubation of the test compound initially at a concentration of 100 micromolar (or less) in a buffered mixture containing fixed concentrations of radiolabelled AII and a cell surface membrane fraction prepared from a suitable angiotensin target tissue. In this test, the source of cell surface membranes is the guinea pig adrenal gland which is well known to respond to AII. Interaction of the radiolabelled AII with its receptors (assessed as radiolabel bound to the particulate membrane fraction following removal of unbound radiolabel by a rapid filtration procedure such as is standard in such studies) is antagonized by compounds which also bind to the membrane receptor sites and the degree of antagonism (observed in the test as displacement of membrane-bound radioactivity) is determined readily by comparing the receptor-bound radioactivity in the presence of the test compound at the specified test concentration with a control value determined in the absence of the test compound. Using this procedure compounds showing at least 50% displacement of radiolabelled AII binding at a concentration of 10^-4 M are retested at lower concentrations to determine their potency. […]

[2] = molecular target: T2, AII-induced contractions of isolated rabbit aorta (Oryctolagus cuniculus, UniProt P34976); assay: Test B: antagonism of AII-induced contractions of isolated rabbit aorta; assay type: cell-based; settings: 37° C., read-out: pA2 (converted)
T2 construct: isolated rabbit aorta, maintained in a physiological salt solution; from tissue; host or cells: isolated rabbit aorta
T2 sequence (P34976 1-359): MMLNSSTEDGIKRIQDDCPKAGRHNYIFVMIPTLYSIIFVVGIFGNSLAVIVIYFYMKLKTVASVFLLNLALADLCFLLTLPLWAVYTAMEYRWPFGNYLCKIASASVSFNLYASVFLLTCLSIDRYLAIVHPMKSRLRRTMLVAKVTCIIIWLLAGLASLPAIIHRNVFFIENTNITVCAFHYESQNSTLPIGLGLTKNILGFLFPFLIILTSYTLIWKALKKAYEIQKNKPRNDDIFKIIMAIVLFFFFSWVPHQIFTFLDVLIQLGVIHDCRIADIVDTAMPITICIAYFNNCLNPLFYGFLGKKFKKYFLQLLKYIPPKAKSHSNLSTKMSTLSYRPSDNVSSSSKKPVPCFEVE
Protocol: Test B: This in vitro test involves the measurement of the antagonistic effects of the test compound against AII-induced contractions of isolated rabbit aorta, maintained in a physiological salt solution at 37° C. In order to ensure that the effect of the compound is specific to antagonism of AII, the effect of the test compound on noradrenaline-induced contractions may also be determined in the same preparation.

[3] = tested on: angiotensin II-induced pressor responses; assay: Test C: antagonism of angiotensin II-induced pressor responses in terminally-anaesthetised or conscious rats; assay type: in vivo; settings: Rattus norvegicus, parenteral administration
Protocol: Test C: This in vivo test involves using terminally-anaesthetised or conscious rats in which an arterial catheter has been implanted under anaesthesia for the measurement of changes in blood pressure. The AII antagonistic effects of the test compound following oral or parenteral administration, are assessed against angiotensin II-induced pressor responses. To ensure that the effect is specific the effect of the test compound on vasopressin-induced pressor responses may also be determined in the same preparation.

SMILES: CCCCc1nc2ccccc2n1Cc1ccc(C(=O)NS(=O)(=O)c2ccccc2)cc1 [Example 3, 4-[(2-butyl-1H-benzimidazol-1-yl)methyl]-N-phenylsulphonylbenzamide]
- IC50 [1]: 100 nM
- Kb [2]: 25.1 nM
- ED50 [3]: 3 mg/kg
